Laboratory results published in patent US20250186396A1, “COMPOSITIONS AND METHODS FOR THE TREATMENT OF GLIOBLASTOMA WITH A DUAL TARGETING ANTI-TUMOR COMPOSITION” (Northwestern University, priority 2023, published 2025).

Key:
[1] = test system: 005 GSC tumors; experiment: Flow cytometry of tumor-derived immune cells, 005 GSC tumors; type: in vivo, C57BL/6 mice
Procedure: (§1) Mice and Intracranial Xenograft Tumor Models. Female C57BL/6 mice at 3 to 4 weeks of age were purchased from the Jackson Laboratory (#0000664). All animals were grouped by 5 mice per cage and maintained in IVC System (San Diego, CA) for a week before the experiment. All animal experiments were performed with the approval of the Institutional Animal Care and Use Committee (IACUC) at Northwestern University. The intracranial xenograft tumor models were established previously. In brief, mice were anesthetized by isoflurane through IMPAC6 Anesthesia System. Then a dental drill was used to open a small hole in the skull of mice 1.2 mm anterior and 3.0 mm lateral to the bregma. Mice were placed into the stereotactic apparatus, and 5 μL 005 GSC, CT2A, or GL261 cells in FBS-free culture medium were injected into the right caudate nucleus 3 mm below the surface of the brain using a 10 μL Hamilton syringe with an unbeveled 30-gauge needle. The incision was closed using Vetbond glue. Meloxicam (20 mg/kg, daily) was subcutaneously injected for pain relief for 3 days after surgery. Mice received the treatment with BAPN (2 g/L in drinking water) on day 4, SR9009 (100 mg/kg body weight, i.p.) daily for 10 days beginning at day 7 post-orthotopic injection, anti-PD1 (10 mg/kg body weight, i.p.) on days 11, 14, and 17 post-orthotopic injection, and/or clodronate liposomes (200 μL, once every 3 days) starting at day 4 post-orthotopic injection. Mice with neurological deficits or moribund appearance were sacrificed according to the IACUC protocol. At the end of the experiment, the brains of mice were collected, either fixed in 4% paraformaldehyde (PFA) (ThermoFisher Scientific, #J61899.AK) after transcardiac perfusion with PBS for optimal cutting temperature (OCT)-cryosectioning or processed using the percoll density gradient cell separation method to isolate tumor-derived immune cells for flow cytometry analysis.
Tumor-derived immune cells isolation. Mice with neurologic deficits or moribund appearance were sacrificed to harvest their brains. Immune cells in the brain tumors were isolated using the percoll density gradient cell separation method as previously described. In brief, after perfusion with PBS, brains were homogenized on ice with pre-cold 10 mL HBSS. Then cells were spun down at 1,500 rpm for 10 minutes at 4° C., and were resuspended in 30% Percoll (GE Healthcare, #17-0891-01). The solution was gently laid on top of the 70% Percoll and centrifuged at 1,200 g for 30 minutes at 4° C. with accelerator 7 and breaker 0. After removing myelin and debris, the interphase was collected and centrifuged at 1,500 rpm for 10 minutes at 4° C. […]
Flow cytometry. […] Samples were read through the BD FACSymphony or BD LSRFortessa flow cytometer and analyzed in FlowJo v10.8.1.

[2] = test system: CT2A tumors; experiment: Flow cytometry of tumor-derived immune cells, CT2A tumors; type: in vivo, C57BL/6 mice; details: for CD45+CD3+CD8+CD69+ activated T cells / CD45+CD3+CD8+IFN-γ+ activated T cells: CT2A tumors
Procedure: as §1
Tumor-derived immune cells isolation. Mice with neurologic deficits or moribund appearance were sacrificed to harvest their brains. Immune cells in the brain tumors were isolated using the percoll density gradient cell separation method as previously described. In brief, after perfusion with PBS, brains were homogenized on ice with pre-cold 10 mL HBSS. Then cells were spun down at 1,500 rpm for 10 minutes at 4° C., and were resuspended in 30% Percoll (GE Healthcare, #17-0891-01). The solution was gently laid on top of the 70% Percoll and centrifuged at 1,200 g for 30 minutes at 4° C. with accelerator 7 and breaker 0. After removing myelin and debris, the interphase was collected and centrifuged at 1,500 rpm for 10 minutes at 4° C. The cell pellet was resuspended for further analysis.
Flow cytometry. The single-cell suspensions were incubated with fixable viability dye (Invitrogen, #5211229035) on ice for 10 minutes. After washing with FACS buffer, cells were incubated with the TruStain FcX (anti-mouse CD16/32) Antibody (BioLegend, #103132) and True-Stain Monocyte Blocker (BioLegend, #426102) in 5% BSA for 30 minutes on ice to block Fc receptors and non-specific binding of the cyanine acceptor fluorophores. Different antibody cocktails, including Percp/Cy5.5 anti-mouse CD45 (BioLegend, […]), AF488 anti-mouse CD3 (BioLegend, #100210), BV711 anti-mouse CD8 (BioLegend, #100747), PE/Cy7 anti-mouse CD69 (BioLegend, #104512), APC/Cy7 anti-mouse IFN-γ (BioLegend, #505850), PE/Cy7 anti-mouse/human CD11b (BioLegend, #101216), PE anti-mouse CD68 (BD Bioscience, #566386), and BV421 anti-mouse CX3CR1 (BD Bioscience, #567531) were added to the samples and incubated for 30 minutes on ice. After washing with FACS buffer, cells were incubated with fixation buffer (BioLegend, #420801) overnight. Samples were read through the BD FACSymphony or BD LSRFortessa flow cytometer and analyzed in FlowJo v10.8.1.

[3] = size matched CT2A tumors, BAPN 2 g/L in drinking water

For `N#CCCN` [BAPN, β-aminopropionitrile], which “CD45+CD3+CD8+CD69+ activated T cells” value [1] is on record?
The value was “Increases”.

What about the “CD45+CD3+CD8+IFN-γ+ activated T cells” value [1] of the same molecule?
Its value is “Increases”.

And the “CD45+CD3+CD8+CD69+ activated T cells” value [2]?
Its value is “Increases”.

And the “CD45+CD3+CD8+IFN-γ+ activated T cells” value [2]?
Its value is “Increases”.

And the “CD45highCD11b+CD68+ macrophages” value [2, 3]?
The value was “decreased”.

What about the “CD45lowCD11b+CX3CR1+ microglia” value [2, 3] of the same molecule?
The value was “increased”.

How did the “CD45+CD3+CD8+CD69+ activated T cells” value [1] turn out when `CCOC(=O)N1CCC(CN(Cc2ccc(Cl)cc2)Cc2ccc([N+](=O)[O-])s2)C1` (stereo not shown) [SR9009] was run?
The value was “Increases”.

What about the “CD45+CD3+CD8+IFN-γ+ activated T cells” value [1] of the same molecule?
The value was “Increases”.

And the “CD45+CD3+CD8+CD69+ activated T cells” value [2]?
Its value is “Increases”.

And the “CD45+CD3+CD8+IFN-γ+ activated T cells” value [2]?
The value was “Increases”.
